The source of these data is US20140051706A1 (PRISM PHARMA CO., LTD., priority 2011, published 2014).

This series can be described thus: Plasma stability test. The series is classed as in vitro ADME. The note with it: human fresh plasma; read-out: ½t (plasma half-life). As to the method: In the tables mentioned below, data indicated by “½t” means data of plasma half-life (minutes) is determined by plasma stability test that mentioned below.
Determination of Plasma half life was carried out according to the following procedure using the fresh plasma.
1. 0.025 mg/mL spiking solution A: add 10 μL of 0.5 mg/mL stock solution to 190 μL of DMSO. 2. Add 90 μL of plasma into the wells designated for all the time points (0, 5, 10, 30, 60, 90, 120, 240 min). 3. Add 10 μL of pre-warmed spiking solution A into the wells designated for all the time points (0, 5, 10, 30, 60, 90, 120, 240 min). Immediately, add 400 μL of ACN containing IS into the wells designated for 0 min, then start timing. 4. At 5, 10, 30, 60, 90, 120, 240 min, add 400 μL of ACN containing IS into the wells, respectively. 5. Protein is precipitated by centrifugation (4000 rpm, 15 min). 6. Transfer 50 μL of supernatant into 50 μL of ultra-pure water (Millipore) in a 96-well sample plate for LC-MS/MS analysis.

One may read the half-life as the time in which the quantity being followed falls by half. For `CCCCC(=O)Oc1ccc(C[C@H]2C(=O)N(Cc3cccc4cccnc34)[C@@H](C)C3N2C(=O)CN(C)N3C(=O)NCc2ccccc2)cc1` (stereo partly drawn) [Example I-2, 4-(((6S,9S)-1-(benzylcarbamoyl)-2,9-dimethyl-4,7-dioxo-8-(quinolin-8-ylmethyl)octahydro-1H-pyrazino[2,1-c][1,2,4]triazin-6-yl)methyl)phenyl pentanoate], the half-life at 2.5 µg/mL was found to be 2.75 h.

Regarding `CC(=O)Oc1ccc(C[C@H]2C(=O)N(Cc3cccc4cccnc34)[C@@H](C)C3N2C(=O)CN(C)N3C(=O)NCc2ccccc2)cc1` (stereo partly drawn) [Example I-1, 4-(((6S,9S)-1-(benzylcarbamoyl)-2,9-dimethyl-4,7-dioxo-8-(quinolin-8-ylmethyl)octahydro-1H-pyrazino[2,1-c][1,2,4]triazin-6-yl)methyl)phenyl acetate], the half-life at 2.5 µg/mL is 0.733 h. Regarding `CCCCCCCCC(=O)Oc1ccc(C[C@H]2C(=O)N(Cc3cccc4cccnc34)[C@@H](C)C3N2C(=O)CN(C)N3C(=O)NCc2ccccc2)cc1` (stereo partly drawn) [Example I-3, 4-(((6S,9S)-1-(benzylcarbamoyl)-2,9-dimethyl-4,7-dioxo-8-(quinolin-8-ylmethyl)octahydro-1H-pyrazino[2,1-c][1,2,4]triazin-6-yl)methyl)phenyl nonanoate], the half-life at 2.5 µg/mL is 2.77 h.
